Data on one molecule can be found in publication doi:10.1101/2023.07.01.547317v1 (biorxiv, 2023).

The target in the test is MoIcl1 (Pyricularia oryzae, UniProt P0CT06). Nature of the test: biochemical. Format: binding.
MoIcl1, sequence (P0CT06 whole entry, looked up): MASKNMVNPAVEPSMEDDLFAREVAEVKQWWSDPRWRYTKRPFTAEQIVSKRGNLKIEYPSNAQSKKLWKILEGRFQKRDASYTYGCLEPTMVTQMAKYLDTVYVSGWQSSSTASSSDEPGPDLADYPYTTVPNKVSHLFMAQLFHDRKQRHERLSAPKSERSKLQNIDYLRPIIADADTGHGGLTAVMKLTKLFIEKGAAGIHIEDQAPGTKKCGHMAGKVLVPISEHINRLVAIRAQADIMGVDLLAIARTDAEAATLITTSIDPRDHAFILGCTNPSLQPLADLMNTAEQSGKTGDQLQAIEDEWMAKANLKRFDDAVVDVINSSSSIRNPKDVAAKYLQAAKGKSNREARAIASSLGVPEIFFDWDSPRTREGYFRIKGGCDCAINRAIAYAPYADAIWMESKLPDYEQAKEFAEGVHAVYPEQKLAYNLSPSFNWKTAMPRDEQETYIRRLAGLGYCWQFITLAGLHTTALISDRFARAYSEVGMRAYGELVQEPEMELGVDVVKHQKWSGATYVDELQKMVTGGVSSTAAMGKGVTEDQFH

In the case of `COc1ccc2[nH]cc(CCNC(C)=O)c2c1` [melatonin, N-acetyl-5-methoxytryptamine], binding was characterised by a dissociation constant (Kd) of 287 µM.
